Assay results as given in US12568972B2, “Pyridazinol compounds and derivatives, preparation methods, herbicidal compositions and applications thereof” (Qingdao Kingagroot Chemical Compound Co., Ltd., priority 2018, dated 2026).

Experiments:
Assay in all cases: Post-emergence test, weed control effect
Assay type in all cases: in vivo
Settings in all cases: after 3 weeks
Chenopodiaceae = test system: Chenopodiaceae
How it was run: (§1)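 Greenhouse pots, soil-sown, 0.5-2 cm cover; foliar spray at 2-3 leaf stage (2-3 wk post-sowing); cpd in acetone + Tween-80, water-diluted, + 80% veg. oil methyl ester synergist 1500 g/ha; 3 wk culture; fresh-wt inhibition graded 0-10.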

Amaranthus retroflexus = test system: Amaranthus retroflexus
How it was run: as §1

Veronica polita = test system: Veronica polita
How it was run: as §1

Rorippa indica = test system: Rorippa indica
How it was run: as §1

Cc1cc(-c2nnc(C(F)(F)F)cc2O)n(C(C)C)n1 [Compound 829]
10: weed control effect (activity level), Chenopodiaceae (Chenopodiaceae; Dose 3000 g/ha) | weed control effect (activity level), Amaranthus retroflexus (Amaranthus retroflexus; Dose 3000 g/ha) | weed control effect (activity level), Veronica polita (Veronica polita; Dose 3000 g/ha) | weed control effect (activity level), Rorippa indica (Rorippa indica; Dose 3000 g/ha)

CC(C)(C)CSC(=O)Oc1cc(C(F)(F)F)nnc1-c1cccc(Br)c1 [Compound 1-51]
10: weed control effect, Chenopodiaceae (activity level) (Chenopodiaceae; Dose 3000 g/ha) | weed control effect, Amaranthus retroflexus (activity level) (Amaranthus retroflexus; Dose 3000 g/ha) | weed control effect, Veronica polita (activity level) (Veronica polita; Dose 3000 g/ha) | weed control effect, Rorippa indica (activity level) (Rorippa indica; Dose 3000 g/ha)

Oc1cc(C(F)(F)F)nnc1-c1ccc(Cl)c(F)c1 [Compound 745]
10: weed control effect (activity level), Chenopodiaceae (Chenopodiaceae; Dose 3000 g/ha) | weed control effect (activity level), Amaranthus retroflexus (Amaranthus retroflexus; Dose 3000 g/ha) | weed control effect (activity level), Veronica polita (Veronica polita; Dose 3000 g/ha) | weed control effect (activity level), Rorippa indica (Rorippa indica; Dose 3000 g/ha)

CCOC(=S)Oc1cc(C(F)(F)F)nnc1-c1ccc(C)cc1 [Compound 1-155]
10: weed control effect, Chenopodiaceae (activity level) (Chenopodiaceae; Dose 3000 g/ha) | weed control effect, Amaranthus retroflexus (activity level) (Amaranthus retroflexus; Dose 3000 g/ha) | weed control effect, Veronica polita (activity level) (Veronica polita; Dose 3000 g/ha) | weed control effect, Rorippa indica (activity level) (Rorippa indica; Dose 3000 g/ha)

O=C(Oc1cc(C(F)(F)F)nnc1-c1ccc(C(F)(F)F)cc1)c1cccs1 [Compound 1-106]
10: weed control effect, Chenopodiaceae (activity level) (Chenopodiaceae; Dose 3000 g/ha) | weed control effect, Amaranthus retroflexus (activity level) (Amaranthus retroflexus; Dose 3000 g/ha) | weed control effect, Veronica polita (activity level) (Veronica polita; Dose 3000 g/ha) | weed control effect, Rorippa indica (activity level) (Rorippa indica; Dose 3000 g/ha)

C/C(CC(C)C)=N/Oc1cc(C(F)(F)F)nnc1-c1cccc(C(F)(F)F)c1 [Compound 1-173]
10: weed control effect, Chenopodiaceae (activity level) (Chenopodiaceae; Dose 3000 g/ha) | weed control effect, Amaranthus retroflexus (activity level) (Amaranthus retroflexus; Dose 3000 g/ha) | weed control effect, Veronica polita (activity level) (Veronica polita; Dose 3000 g/ha) | weed control effect, Rorippa indica (activity level) (Rorippa indica; Dose 3000 g/ha)

Cn1ncc(Cl)c1-c1nnc(C(F)(F)F)cc1O [Compound 805]
10: weed control effect (activity level), Chenopodiaceae (Chenopodiaceae; Dose 3000 g/ha) | weed control effect (activity level), Amaranthus retroflexus (Amaranthus retroflexus; Dose 3000 g/ha) | weed control effect (activity level), Veronica polita (Veronica polita; Dose 3000 g/ha) | weed control effect (activity level), Rorippa indica (Rorippa indica; Dose 3000 g/ha)

Oc1cc(C(F)(F)F)nnc1-c1cccc(C(F)(F)F)c1 [Compound 92]
10: weed control effect (activity level), Chenopodiaceae (Chenopodiaceae; dose 1000 g/ha) | weed control effect (activity level), Amaranthus retroflexus (Amaranthus retroflexus; dose 1000 g/ha) | weed control effect (activity level), Veronica polita (Veronica polita; dose 1000 g/ha) | weed control effect (activity level), Rorippa indica (Rorippa indica; dose 1000 g/ha)

Cc1ncoc1C(=O)Oc1cc(C(F)(F)F)nnc1-c1ccc(F)c(F)c1 [Compound 1-108]
10: weed control effect, Chenopodiaceae (activity level) (Chenopodiaceae; Dose 3000 g/ha) | weed control effect, Amaranthus retroflexus (activity level) (Amaranthus retroflexus; Dose 3000 g/ha) | weed control effect, Veronica polita (activity level) (Veronica polita; Dose 3000 g/ha) | weed control effect, Rorippa indica (activity level) (Rorippa indica; Dose 3000 g/ha)

Oc1cc(C(F)(F)F)nnc1-c1ccc2ncccc2c1 [Compound 714]
10: weed control effect (activity level), Chenopodiaceae (Chenopodiaceae; Dose 3000 g/ha) | weed control effect (activity level), Amaranthus retroflexus (Amaranthus retroflexus; Dose 3000 g/ha) | weed control effect (activity level), Veronica polita (Veronica polita; Dose 3000 g/ha) | weed control effect (activity level), Rorippa indica (Rorippa indica; Dose 3000 g/ha)

O=C(COc1cc(C(F)(F)F)nnc1-c1ccc(F)c(F)c1)c1ccccc1 [Compound 1-213]
10: weed control effect, Chenopodiaceae (activity level) (Chenopodiaceae; Dose 3000 g/ha) | weed control effect, Amaranthus retroflexus (activity level) (Amaranthus retroflexus; Dose 3000 g/ha) | weed control effect, Veronica polita (activity level) (Veronica polita; Dose 3000 g/ha) | weed control effect, Rorippa indica (activity level) (Rorippa indica; Dose 3000 g/ha)

C#Cc1cc(OC2CC2)ncc1-c1nnc(C(F)(F)F)cc1O [Compound 231]
10: weed control effect (activity level), Chenopodiaceae (Chenopodiaceae; dose 2000 g/ha) | weed control effect (activity level), Amaranthus retroflexus (Amaranthus retroflexus; dose 2000 g/ha) | weed control effect (activity level), Veronica polita (Veronica polita; dose 2000 g/ha) | weed control effect (activity level), Rorippa indica (Rorippa indica; dose 2000 g/ha)

CCC/C(C)=N\Oc1cc(C(F)(F)F)nnc1-c1ccc(OC)cc1 [Compound 1-171]
10: weed control effect, Chenopodiaceae (activity level) (Chenopodiaceae; Dose 3000 g/ha) | weed control effect, Amaranthus retroflexus (activity level) (Amaranthus retroflexus; Dose 3000 g/ha) | weed control effect, Veronica polita (activity level) (Veronica polita; Dose 3000 g/ha) | weed control effect, Rorippa indica (activity level) (Rorippa indica; Dose 3000 g/ha)

Oc1cc(C(F)(F)F)nnc1-c1cccc(Br)c1F [Compound 48]
10: weed control effect (activity level), Chenopodiaceae (Chenopodiaceae; dose 1000 g/ha) | weed control effect (activity level), Amaranthus retroflexus (Amaranthus retroflexus; dose 1000 g/ha) | weed control effect (activity level), Veronica polita (Veronica polita; dose 1000 g/ha) | weed control effect (activity level), Rorippa indica (Rorippa indica; dose 1000 g/ha)

Cc1ccc(-c2nnc(C(F)(F)F)cc2O)o1 [Compound 414]
10: weed control effect (activity level), Chenopodiaceae (Chenopodiaceae; Dose 3000 g/ha) | weed control effect (activity level), Amaranthus retroflexus (Amaranthus retroflexus; Dose 3000 g/ha) | weed control effect (activity level), Veronica polita (Veronica polita; Dose 3000 g/ha) | weed control effect (activity level), Rorippa indica (Rorippa indica; Dose 3000 g/ha)

Cn1ncc(CC(F)(F)F)c1-c1nnc(C(F)(F)F)cc1O [Compound 825]
10: weed control effect (activity level), Chenopodiaceae (Chenopodiaceae; Dose 3000 g/ha) | weed control effect (activity level), Amaranthus retroflexus (Amaranthus retroflexus; Dose 3000 g/ha) | weed control effect (activity level), Veronica polita (Veronica polita; Dose 3000 g/ha) | weed control effect (activity level), Rorippa indica (Rorippa indica; Dose 3000 g/ha)

Oc1cc(C(F)(F)F)nnc1-c1cc(Cl)ccc1Cl [Compound 37]
10: weed control effect (activity level), Chenopodiaceae (Chenopodiaceae; dose 1000 g/ha) | weed control effect (activity level), Amaranthus retroflexus (Amaranthus retroflexus; dose 1000 g/ha) | weed control effect (activity level), Veronica polita (Veronica polita; dose 1000 g/ha) | weed control effect (activity level), Rorippa indica (Rorippa indica; dose 1000 g/ha)

Oc1cc(C(F)(F)F)nnc1-c1cnccc1C(F)(F)F [Compound 978]
10: weed control effect (activity level), Chenopodiaceae (Chenopodiaceae; Dose 3000 g/ha) | weed control effect (activity level), Amaranthus retroflexus (Amaranthus retroflexus; Dose 3000 g/ha) | weed control effect (activity level), Veronica polita (Veronica polita; Dose 3000 g/ha) | weed control effect (activity level), Rorippa indica (Rorippa indica; Dose 3000 g/ha)

Oc1cc(C(F)(F)F)nnc1-c1cccc(Cl)c1 [Compound 27]
10: weed control effect (activity level), Chenopodiaceae (Chenopodiaceae; dose 1000 g/ha) | weed control effect (activity level), Amaranthus retroflexus (Amaranthus retroflexus; dose 1000 g/ha) | weed control effect (activity level), Veronica polita (Veronica polita; dose 1000 g/ha) | weed control effect (activity level), Rorippa indica (Rorippa indica; dose 1000 g/ha)

Cn1nc(C#N)cc1-c1nnc(C(F)(F)F)cc1O [Compound 791]
10: weed control effect (activity level), Chenopodiaceae (Chenopodiaceae; Dose 3000 g/ha) | weed control effect (activity level), Amaranthus retroflexus (Amaranthus retroflexus; Dose 3000 g/ha) | weed control effect (activity level), Veronica polita (Veronica polita; Dose 3000 g/ha) | weed control effect (activity level), Rorippa indica (Rorippa indica; Dose 3000 g/ha)

C#Cc1ccc(-c2nnc(C(F)(F)F)cc2O)c(OC(C)=O)c1 [Compound 173]
10: weed control effect (activity level), Chenopodiaceae (Chenopodiaceae; dose 2000 g/ha) | weed control effect (activity level), Amaranthus retroflexus (Amaranthus retroflexus; dose 2000 g/ha) | weed control effect (activity level), Veronica polita (Veronica polita; dose 2000 g/ha) | weed control effect (activity level), Rorippa indica (Rorippa indica; dose 2000 g/ha)

Cn1ncc(F)c1-c1nnc(C(F)(F)F)cc1O [Compound 804]
10: weed control effect (activity level), Chenopodiaceae (Chenopodiaceae; Dose 3000 g/ha) | weed control effect (activity level), Amaranthus retroflexus (Amaranthus retroflexus; Dose 3000 g/ha) | weed control effect (activity level), Veronica polita (Veronica polita; Dose 3000 g/ha) | weed control effect (activity level), Rorippa indica (Rorippa indica; Dose 3000 g/ha)

CCSC(=O)Oc1cc(C(F)(F)F)nnc1-c1ccc(F)c(F)c1 [Compound 1-42]
10: weed control effect, Chenopodiaceae (activity level) (Chenopodiaceae; Dose 3000 g/ha) | weed control effect, Amaranthus retroflexus (activity level) (Amaranthus retroflexus; Dose 3000 g/ha) | weed control effect, Veronica polita (activity level) (Veronica polita; Dose 3000 g/ha) | weed control effect, Rorippa indica (activity level) (Rorippa indica; Dose 3000 g/ha)

COc1ccc(Cl)c(-c2nnc(C(F)(F)F)cc2O)c1 [Compound 70]
10: weed control effect (activity level), Chenopodiaceae (Chenopodiaceae; dose 1000 g/ha) | weed control effect (activity level), Amaranthus retroflexus (Amaranthus retroflexus; dose 1000 g/ha) | weed control effect (activity level), Veronica polita (Veronica polita; dose 1000 g/ha) | weed control effect (activity level), Rorippa indica (Rorippa indica; dose 1000 g/ha)

Cn1ncc(C(F)(F)F)c1-c1nnc(C(F)(F)F)cc1O [Compound 823]
10: weed control effect (activity level), Chenopodiaceae (Chenopodiaceae; Dose 3000 g/ha) | weed control effect (activity level), Amaranthus retroflexus (Amaranthus retroflexus; Dose 3000 g/ha) | weed control effect (activity level), Veronica polita (Veronica polita; Dose 3000 g/ha) | weed control effect (activity level), Rorippa indica (Rorippa indica; Dose 3000 g/ha)

CCCCCCCCOC(=O)Oc1cc(C(F)(F)F)nnc1-c1ccc(C(F)(F)F)cc1 [Compound 1-40]
10: weed control effect, Chenopodiaceae (activity level) (Chenopodiaceae; Dose 3000 g/ha) | weed control effect, Amaranthus retroflexus (activity level) (Amaranthus retroflexus; Dose 3000 g/ha) | weed control effect, Veronica polita (activity level) (Veronica polita; Dose 3000 g/ha) | weed control effect, Rorippa indica (activity level) (Rorippa indica; Dose 3000 g/ha)

CP(=O)(O)CCC(N)C(=O)Oc1cc(C(F)(F)F)nnc1-c1ccc(F)cc1 (stereo not drawn) [Compound 1-78]
10: weed control effect, Chenopodiaceae (activity level) (Chenopodiaceae; Dose 3000 g/ha) | weed control effect, Amaranthus retroflexus (activity level) (Amaranthus retroflexus; Dose 3000 g/ha) | weed control effect, Veronica polita (activity level) (Veronica polita; Dose 3000 g/ha) | weed control effect, Rorippa indica (activity level) (Rorippa indica; Dose 3000 g/ha)

Oc1cc(C(F)(F)F)nnc1-c1cc(Cl)cnc1F [Compound 998]
10: weed control effect (activity level), Chenopodiaceae (Chenopodiaceae; Dose 3000 g/ha) | weed control effect (activity level), Amaranthus retroflexus (Amaranthus retroflexus; Dose 3000 g/ha) | weed control effect (activity level), Veronica polita (Veronica polita; Dose 3000 g/ha) | weed control effect (activity level), Rorippa indica (Rorippa indica; Dose 3000 g/ha)

O=C(Oc1cc(C(F)(F)F)nnc1-c1ccccc1)C1CCCCC1 [Compound 1-19]
10: weed control effect, Chenopodiaceae (activity level) (Chenopodiaceae; Dose 3000 g/ha) | weed control effect, Amaranthus retroflexus (activity level) (Amaranthus retroflexus; Dose 3000 g/ha) | weed control effect, Veronica polita (activity level) (Veronica polita; Dose 3000 g/ha) | weed control effect, Rorippa indica (activity level) (Rorippa indica; Dose 3000 g/ha)

N#Cc1cccc(-c2nnc(C(F)(F)F)cc2O)c1 [Compound 742]
10: weed control effect (activity level), Chenopodiaceae (Chenopodiaceae; Dose 3000 g/ha) | weed control effect (activity level), Amaranthus retroflexus (Amaranthus retroflexus; Dose 3000 g/ha) | weed control effect (activity level), Veronica polita (Veronica polita; Dose 3000 g/ha) | weed control effect (activity level), Rorippa indica (Rorippa indica; Dose 3000 g/ha)
